In patent US7129232B2, “Cephem compounds” (Astellas Pharma Inc., priority 2002, dated 2006):
In brackets after ≈: the same amount, converted by molar mass.

System: Pseudomonas aeruginosa FP 1380
Assay: In vitro antibacterial activity (MIC) by the two-fold agar-plate dilution method
Format: cell-based
Details: FP1380; test strain Pseudomonas aeruginosa FP 1380; heart infusion agar; incubation at 37° C. for 20 hours; read-out: MIC (minimal inhibitory concentration)
Protocol: In vitro antibacterial activity was determined by the two-fold agar-plate dilution method as described below.
One loopful of an overnight culture of each test strain in Trypticase-soy broth (10^6 viable cells per ml) was streaked on heart infusion agar (HI-agar) containing graded concentrations of representative test compound, and the minimal inhibitory concentration (MIC) was expressed in μg/ml after incubation at 37° C. for 20 hours.

SMILES	MIC
Cn1c(N)c(NC(=O)CCN)c[n+]1CC1=C(C(=O)[O-])N2C(=O)[C@@H](NC(=O)/C(=N\OC(C)(C)C(=O)O)c3nsc(N)n3)[C@H]2SC1 [Compound (b), 7β-[(Z)-2-(5-amino-1,2,4-thiadiazol-3-yl)-2-(1-carboxy-1-methylethoxyimino)acetamido]-3-[3-amino-4-(3-aminopropionamido)-2-methyl-1-pyrazolio]methyl-3-cephem-4-carboxylate]	1 µg/mL (≈ 1.53 µM)
Cn1c(N)c(NC(=O)CN)c[n+]1CC1=C(C(=O)O)N2C(=O)[C@@H](NC(=O)/C(=N\OC(C)(C)C(=O)O)c3nsc(N)n3)[C@H]2SC1.O=S(=O)([O-])O [Compound (c), 7β-[(Z)-2-(5-amino-1,2,4-thiadiazol-3-yl)-2-(1-carboxy-1-methylethoxyimino)acetamido]-3-[3-amino-4-(aminoacetyl)amino-2-methyl-1-pyrazolio]methyl-3-cephem-4-carboxylic acid hydrogen sulfate]	2 µg/mL
Cn1c(N)c(NC(=O)NCCN)c[n+]1CC1=C(C(=O)O)N2C(=O)[C@@H](NC(=O)/C(=N\OC(C)(C)C(=O)O)c3nsc(N)n3)[C@H]2SC1.O=S(=O)([O-])O [Compound (d), 7β-[(Z)-2-(5-amino-1,2,4-thiadiazol-3-yl)-2-(1-carboxy-1-methylethoxyimino)acetamido]-3-{3-amino-4-[3-(2-aminoethyl)ureido]-2-methyl-1-pyrazolio}methyl-3-cephem-4-carboxylic acid hydrogen sulfate]	2 µg/mL

Results, then the molecule that gave them:

MIC	SMILES
1 µg/mL	Cn1c(N)c(NC(=N)N)c[n+]1CC1=C(C(=O)O)N2C(=O)[C@@H](NC(=O)/C(=N\OC(C)(C)C(=O)O)c3nsc(N)n3)[C@H]2SC1.O=S(=O)([O-])O [Compound (e), 7β-[(Z)-2-(5-amino-1,2,4-thiadiazol-3-yl)-2-(1-carboxy-1-methylethoxyimino)acetamido]-3-(3-amino-4-guanidino-2-methyl-1-pyrazolio)methyl-3-cephem-4-carboxylic acid hydrogen sulfate]
128 µg/mL (≈ 234 µM)	CC(C)(O/N=C(\C(=O)N[C@@H]1C(=O)N2C(C(=O)[O-])=C(C[n+]3ccccc3)CS[C@H]12)c1csc(N)n1)C(=O)O [Ceftazidime, reference compound]

Same assay, conditions: test strain Pseudomonas aeruginosa FP 1380; heart infusion agar; incubation at 37° C. for 20 hours

MIC (minimal inhibitory concentration)	SMILES
2 µg/mL (≈ 3.01 µM)	CC(C)(O/N=C(\C(=O)N[C@@H]1C(=O)N2C(C(=O)[O-])=C(C[n+]3cc(NC(=O)CCN)c4n3CCN4)CS[C@H]12)c1nsc(N)n1)C(=O)O [Compound (a), 7β-[(Z)-2-(5-amino-1,2,4-thiadiazol-3-yl)-2-(1-carboxy-1-methylethoxyimino)acetamido]-3-[7-(3-aminopropionamido)-2,3-dihydro-5-(1H-imidazo[1,2-b]pyrazolio)]methyl-3-cephem-4-carboxylate]
